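Protocol summary: plate cells (96-well), add compound at 5 concentrations, incubate 48 h, interpolate endpoints linearly. GI50: concentration for 50% inhibition of growth.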 The source made the active and inactive calls. Rule as the data show it: active = GI50 up to about 1.1 µM and inactive = higher.
Tests used:
Experiment in all cases: DTP human tumour cell line panel, 48 h
MCF7 = test system: MCF7
DMS-273 = test system: DMS-273
RXF 631 = test system: RXF 631
KM-20L2 = test system: KM-20L2
SNB-78 = test system: SNB-78
DMS-114 = test system: DMS-114
DLD-1 = test system: DLD-1
XF498 = test system: XF498
HOP-18 = test system: HOP-18

For `O=C1/C(=C/c2ccccc2O)N=C(c2ccccc2)N1c1nc2ccccc2s1`, the GI50 (MCF7) was 3.37 µM (inactive).
`CC1(C)Oc2ccccc2[N+]([O-])=C1c1ccccc1` was tested, and the GI50 (DMS-273) was > 100 µM (inactive), the GI50 (RXF 631) was > 100 µM (inactive) and the GI50 (KM-20L2) was > 100 µM (inactive). The GI50 (SNB-78) was > 100 µM (inactive), the GI50 (DMS-114) was > 100 µM (inactive) and the GI50 (DLD-1) was > 100 µM (inactive).
`O=C(CCc1ccc(O)c(O)c1)NCCc1ccccc1` was tested, and the GI50 (MCF7) was 15.1 µM (inactive).
In the case of `CC1C[C@]2(C[C@@H](C)C(=O)O2)O[C@@H]2CC3(C)[C@@H]4CCC5C(C)(C)OC(=O)C[C@H]6OO[C@]4(CC[C@]3(C)C12)CC56O` (some centres undefined), the GI50 (XF498) is reported as > 100 µM (inactive), the GI50 (DMS-273) is reported as > 100 µM (inactive) and the GI50 (SNB-78) is reported as > 100 µM (inactive). The GI50 (HOP-18) was > 100 µM (inactive), the GI50 (DMS-114) was > 100 µM (inactive) and the GI50 (DLD-1) was > 100 µM (inactive).
With `Cc1nc(Nc2ccc(Cl)cc2)sc1C(=O)Nc1cccc2c(=O)[nH][nH]c(=O)c12` the GI50 (DMS-273) was 7.24 µM (inactive), the GI50 (KM-20L2) was 11.8 µM (inactive) and the GI50 (SNB-78) was > 100 µM (inactive). The GI50 (DMS-114) was 19.2 µM (inactive) and the GI50 (DLD-1) was 17.5 µM (inactive).
With `CCOC(=O)C1=C(OC(OCC)C([Se]c2ccccc2)C(C)C)CCC1` (centres undefined) the GI50 (XF498) was 11.6 µM (inactive), the GI50 (DMS-273) was 5.52 µM (inactive) and the GI50 (KM-20L2) was 28.8 µM (inactive). For the same compound, the GI50 (SNB-78) was 12.8 µM (inactive), the GI50 (HOP-18) was 16.2 µM (inactive) and the GI50 (DLD-1) was 14.7 µM (inactive).
With `CC(CN1NC12CCCC2)N1NC12CCCC2` (centres undefined) the GI50 (MCF7) was > 100 µM (inactive).
In the case of `COc1ccc(/C=C2\C(=O)N(C(=O)Cc3ccccc3)N=C2C)cc1OC`, the GI50 (XF498) is reported as > 100 µM (inactive), the GI50 (DMS-273) is reported as > 100 µM (inactive) and the GI50 (SNB-78) is reported as > 100 µM (inactive). For the same compound, the GI50 (HOP-18) was > 100 µM (inactive) and the GI50 (DMS-114) was > 100 µM (inactive).
`Cc1cc(C)nc(SCCc2cccc[n+]2C)n1` was tested, and the GI50 (MCF7) was > 100 µM (inactive).
For `CC(=O)N(C(C)=O)c1ncc(-n2nc(-c3ccccc3)cc2-c2ccccc2)c(-c2ccccc2)n1`, the GI50 (MCF7) was 5.07 µM (inactive).
For `C=C1C(=O)OC2CC(C)C(C(O)CC(C)O)=CCC12` (centres undefined), the GI50 (MCF7) was 13.9 µM (inactive).
For `CCCCCC(=O)OC[n+]1cccc(-c2c(COC(=O)NC(C)C)c(COC(=O)NC(C)C)c3n2CCC3)c1`, the GI50 (MCF7) was 31.6 µM (inactive).
`O=C(/C=C(\O)c1cc(-c2ccccc2)n(-c2ccccc2)n1)c1ccccc1` was tested, and the GI50 (MCF7) was 9.73 µM (inactive).
`Cc1cc(S(=O)(=O)n2ccnc2Oc2ccccc2)c(SSc2cc(Cl)c(C)cc2S(=O)(=O)n2ccnc2Oc2ccccc2)cc1Cl` was tested, and the GI50 (MCF7) was > 100 µM (inactive).
With `Cc1cc(S(=O)(=O)O)c(NC(=O)C(=O)Cc2cc(=O)oc3cc(O)ccc23)cc1Cl` the GI50 (DMS-273) was > 100 µM (inactive), the GI50 (RXF 631) was > 100 µM (inactive) and the GI50 (KM-20L2) was > 100 µM (inactive). The GI50 (HOP-18) was > 100 µM (inactive), the GI50 (DMS-114) was > 100 µM (inactive) and the GI50 (DLD-1) was > 100 µM (inactive).
`Cc1nc(C)c(N2CCN(C#N)CC2)c(O)n1` was tested, and the GI50 (MCF7) was > 100 µM (inactive).
For `COc1ccc2[nH]c3ccc4cc[n+](CCN5CCC(C6CCN(CC[n+]7ccc8ccc9[nH]c%10ccc(OC)cc%10c9c8c7)CC6)CC5)cc4c3c2c1`, the GI50 (XF498) was > 60.1 µM (inactive), the GI50 (DMS-273) was 0.23 µM (active) and the GI50 (KM-20L2) was 1.36 µM (inactive). The GI50 (SNB-78) was 9.12 µM (inactive), the GI50 (HOP-18) was 1.79 µM (inactive) and the GI50 (DMS-114) was 0.125 µM (active). The GI50 (DLD-1) was 0.824 µM (active).
For `COc1ccc(/C=C/c2cc(OC)c(OC)c(OC)c2)cc1O[Si](C)(C)C(C)(C)C`, the GI50 (MCF7) was 3.6 µM (inactive).
In the case of `COc1ccc(NC(=O)/C(=N/O)C(C)=O)cc1`, the GI50 (DMS-273) is reported as > 100 µM (inactive), the GI50 (KM-20L2) is reported as 87.9 µM (inactive) and the GI50 (SNB-78) is reported as > 100 µM (inactive). For the same compound, the GI50 (HOP-18) was > 100 µM (inactive), the GI50 (DMS-114) was 36.7 µM (inactive) and the GI50 (DLD-1) was 42.5 µM (inactive).
`O=C1CSC(c2cccc(Cl)c2)N1c1ccc(-c2ccc(-n3c(-c4ccccc4)nc4ccccc4c3=O)cc2)cc1` (centres undefined) was tested, and the GI50 (MCF7) was 30.8 µM (inactive).
For `COc1nc2ncc([C@@H](OC(C)=O)[C@@H](COC(C)=O)OC(C)=O)nc2c(=O)[nH]1`, the GI50 (MCF7) was > 100 µM (inactive).
`Cc1nn(-c2ccccc2)c(C)c1/C=N/N=C1\SCC(=O)N1c1ccccc1` was tested, and the GI50 (MCF7) was 27.4 µM (inactive).
For `NNC(=S)N/N=C(/C(=O)Nc1ccc([N+](=O)[O-])cc1)c1nc2ccc([N+](=O)[O-])cc2nc1O`, the GI50 (XF498) was > 100 µM (inactive), the GI50 (SNB-78) was > 100 µM (inactive) and the GI50 (HOP-18) was > 100 µM (inactive). For the same compound, the GI50 (DMS-114) was 77.6 µM (inactive) and the GI50 (DLD-1) was > 100 µM (inactive).
`C/C(=N\N=C1/C(=O)OC(c2ccccc2)=C1C(=O)c1ccccc1)c1ccc([N+](=O)[O-])cc1` was tested, and the GI50 (MCF7) was 26.7 µM (inactive).
With `CCCCc1ccc(N2C(=O)c3cc(C)cnc3S2(=O)=O)cc1` the GI50 (MCF7) was > 100 µM (inactive).
For `CC(=O)C1C(=O)C(=O)N(c2ccccc2C(C)C)C1=O` (centres undefined), the GI50 (XF498) was > 100 µM (inactive), the GI50 (KM-20L2) was > 100 µM (inactive) and the GI50 (SNB-78) was > 100 µM (inactive). The GI50 (HOP-18) was > 100 µM (inactive).
With `Cc1cc(NS(=O)(=O)c2ccc(/N=N/c3c(Nc4ccccc4)nn(-c4ccc(S(=O)(=O)Nc5ccncn5)cc4)c3C)cc2)no1` the GI50 (MCF7) was > 100 µM (inactive).
In the case of `CON(C)C(=O)CNC(=O)OCC1c2ccccc2-c2ccccc21`, the GI50 (MCF7) is reported as > 100 µM (inactive).
In the case of `CC(C1=CC=C2[C@@H]3CCC4CC(N(C)C)CC[C@]4(C)C3CC[C@]12C)N(C)C=O` (some centres undefined), the GI50 (DMS-273) is reported as > 100 µM (inactive), the GI50 (HOP-18) is reported as > 100 µM (inactive) and the GI50 (DMS-114) is reported as 91.6 µM (inactive). The GI50 (DLD-1) was > 100 µM (inactive).
With `CC1=CCC[C@@H]2[C@@](C)(Cc3cc(O)ccc3O)[C@H](C)CC[C@@]12C` the GI50 (MCF7) was 4.97 µM (inactive).
With `CCN(CC)c1ccc(/C=C/C=C2C(=O)NC(=S)NC2=O)cc1` the GI50 (MCF7) was 27 µM (inactive).
In the case of `Cc1ccc(S(=O)(=O)N2CCCN(S(=O)(=O)c3ccc(C)cc3)CCN(S(=O)(=O)c3ccc(C)cc3)CCCSCC2)cc1`, the GI50 (MCF7) is reported as > 100 µM (inactive).
With `COc1ccc2[nH]c(C(=O)N3CC(CCl)c4ccc(N)cc43)cc2c1` (centres undefined) the GI50 (MCF7) was 0.0689 µM (active).
In the case of `Cn1c(=O)c2c(nc3n(Cc4ccccc4)c(=O)c(Br)cn23)n(C)c1=O`, the GI50 (MCF7) is reported as > 100 µM (inactive).
In the case of `C=CCC1(O)c2ccccc2C(=O)c2c(O)ccc(O)c21` (centres undefined), the GI50 (MCF7) is reported as 4.11 µM (inactive).

— ChEMBL document CHEMBL1201862, “PubChem BioAssay data set” (2004)
